According to patent publication US7303876B2 (Applera Corporation, priority 2000, dated 2007):
Read-outs that look alike come from different tables or passages of the source. Blank lines part the entries; values can stand above or below the compound they belong to.

What was measured:
slices of liver = experiment: Maceration of liver slices by reaction compositions at 65° C.
Method: Initially, a series of reaction compositions were analyzed for their ability to disaggregate a biological sample, e.g., slices of liver. These reaction compositions comprised 100 mM Tris, pH 8.0, 20 mM dithiothreitol (DTT), and optionally,1 mg/ml Proteinase K, surfactants (e.g., cationic, nonionic and anionic detergents), chaotropes, or the additive 1-methyl-2-pyrollidinone (Sigma). Each reaction compositions was placed in a tube with a slice of liver and then incubated at 65° C. The tubes were observed periodically to determine which reaction compositions were able to efficiently macerate the sample.

Liver tissue [1] = experiment: Liver tissue disaggregation by 1% surfactant with or without Proteinase K at 60° C.; design: Tissue Disaggregation: scale not given here; conditions: for Tissue Disaggregation: 60° C., 1% surfactant
Method: To evaluate the ability of various cationic surfactants to increase the digestion of tissue by Proteinase K, liver slices were digested using reaction compositions including one of the sixteen surfactants (shown in Table 4), both with and without Proteinase K. The reducing agent dithiothreitol (DTT) was included to evaluate the effect of reducing conditions on tissue digestion. […] One of the sixteen surfactants was added to one pair of tubes to yield a final concentration of 1% surfactant. The seventeenth pair of tubes served as non-surfactant controls. One milligram (mg) of Proteinase K was added to one tube of each of the seventeen pairs.
PK=presence or absence of Proteinase K in the reaction composition; Y=Proteinase K was present; N=Proteinase K was not present in the reaction composition.

[2] = Solubility of surfactants (0.5% Sarkosyl, LDS, SDS, CTAB; 5.0% others) in salt solutions
Method: In certain instances, the solubility of detergents in high salt may relate to on the composition of the salt and the detergent itself. A mixing experiment was performed to examine the solubility of a variety of anionic, cationic, and nonionic surfactants in different salt compositions. […] The salt solutions contained Lil, Nal, KI, Rbl, Csl , GuSCN, GuHCl, or NaClO4, at pH 6.0 or 10.0. […] The solubility of the surfactants was scored as either soluble or insoluble. The solubility of the surfactant in the salt solution was determined initially by visual observations for cloudiness or precipitate formation. The resulting solutions were also centrifuged to verify the absence of a precipitate by the absence of a precipitate pellet.

Liver tissue [3] = experiment: Nucleic acid release from liver slices, pH 6, 45° C., 30 minutes, surfactants and additives; conditions: with 1-methyl-2-pyrolidinone
Method: To compare CTACl to CTAB, those two surfactants were evaluated in parallel along with hexadecyltrimethylammonium bromide (HDTAB), hexadecyltrimethylammonium chloride (HDTACl), and Sarkosyl. Three additives, phenylglyoxal, acridine orange (e.g., Sigma #A6014), and 1-methyl-2-pyrolidinone, were also evaluated. Phenylglyoxal was tested to determine if it would reduce RNAse activity. […] 1-Methyl-2-pyrrolidinone was tested to see if it would enhance solubility of the sample by various reaction compositions.
Slices of liver-tissue (100-200 mg/sample) were placed into twenty-one Eppendorf tubes. Four hundred microliters of a reaction composition, comprising 100 mM MES, pH 6, 20 mM CaCl2, and 1 mg Proteinase K, was added to each tube.
The tubes were incubated at 45° C. for 30 minutes with mixing (Eppendorf Thermomixer, Model 5436). Surfactant: protease complexes were solubilized using methods the same as or similar to those described in Example 7. Remaining tissue fragments were removed by centrifugation using methods the same as or similar to those described in Example 7. The supernatant was phenol extracted, isopropanol precipitated, and ethanol washed using methods the same as or similar to those described in Example 6.

[4] = 1 mg/ml Proteinase K, 16-24 hr, 65° C., additive 0.1%
[5] = 1 mg/ml Proteinase K, 16-24 hr, 65° C., additive 1%
[6] = 1 mg/ml Proteinase K, 1 hr, 65° C., additive 0.1%
[7] = 1 mg/ml Proteinase K, 1 hr, 65° C., additive 1%
[8] = Fifteen Minutes Incubation, Proteinase K not present (N)
[9] = Fifteen Minutes Incubation, Proteinase K present (Y)
[10] = Fifty-Two Minutes Incubation, Proteinase K not present (N)
[11] = Fifty-Two Minutes Incubation, Proteinase K present (Y)
[12] = No Proteinase K, 16-24 hr, 65° C., additive 2%
[13] = No Proteinase K, 72 hr, 65° C., additive 2%
[14] = No Proteinase K, 2-5 hr, 65° C., additive 2%

Compound: C[C@H](CCC(=O)NCCS(=O)(=O)O)[C@H]1CC[C@H]2[C@@H]3CC[C@@H]4C[C@H](O)CC[C@]4(C)[C@H]3C[C@H](O)[C@]12C [Taurodeoxycholic Acid]
maceration of liver slice (slices of liver; [4]): 0%
maceration of liver slice (slices of liver; [5]): 0%
maceration of liver slice (slices of liver; [6]): 0%
maceration of liver slice (slices of liver; [7]): 0%

Compound: C[C@H](CCC(=O)NCCS(=O)(=O)O)[C@H]1CC[C@H]2[C@@H]3[C@H](O)C[C@@H]4C[C@H](O)CC[C@]4(C)[C@H]3C[C@H](O)[C@]12C [Taurocholic Acid]
maceration of liver slice (slices of liver): 0%

Compound: O[C@H](CS)[C@H](O)CS (racemic) [DTT, dithiothreitol]
effect of reducing agent on tissue disaggregation (Liver tissue [1]; 20 mM dithiothreitol): did not seem to significantly effect tissue disaggregation

Compound: Cl.N=C(N)N [Guanidinium chloride]
maceration of liver slice (slices of liver; 1 mg/ml Proteinase K, 2-5 hr, 65° C., additive 2 M): 0%
maceration of liver slice (slices of liver; No Proteinase K, 2-5 hr, 65° C., additive 2 M): 0%

Compound: CCCCCCCCCCCCCC[N+](C)(C)Cc1ccccc1.[Cl-] [Benzyldimethyltetradecyl ammonium chloride]
Tissue Disaggregation (Liver tissue [1]; [8]): 0
Tissue Disaggregation (Liver tissue [1]; [9]): 0
Tissue Disaggregation (Liver tissue [1]; [10]): 0
Tissue Disaggregation (Liver tissue [1]; [11]): 1

Tissue Disaggregation (Liver tissue [1]; [8]): 0
Tissue Disaggregation (Liver tissue [1]; [9]): 3
Tissue Disaggregation (Liver tissue [1]; [10]): 0
Tissue Disaggregation (Liver tissue [1]; [11]): 3
Compound: CCCCCCCCCCCCCCCCCC[N+](C)(C)Cc1ccccc1.[Cl-] [Mackernium SDC-85, Stearalkonium chloride]

Solubility of surfactant ([2]; pH 6): S
Solubility of surfactant ([2]; pH 10): S
Compound: (octylphenoxy)polyethoxyethanol [IGEPA]

Tissue Disaggregation (Liver tissue [1]; [8]): 0
Tissue Disaggregation (Liver tissue [1]; [9]): 1
Tissue Disaggregation (Liver tissue [1]; [10]): 0
Tissue Disaggregation (Liver tissue [1]; [11]): 1
Compound: Quaternium-84 [Mackernium NLE]

Compound: N#CS.N=C(N)N [Guanidinium thiocyanate]
maceration of liver slice (slices of liver; 1 mg/ml Proteinase K, 2-5 hr, 65° C., additive 1 M): 25%
maceration of liver slice (slices of liver; No Proteinase K, 2-5 hr, 65° C., additive 1 M): 0%

Compound: C[C@H](CCC(=O)O)[C@H]1CC[C@H]2[C@@H]3[C@H](O)C[C@@H]4C[C@H](O)CC[C@]4(C)[C@H]3C[C@H](O)[C@]12C [Cholic Acid]
maceration of liver slice (slices of liver; [12]): 0%

Compound: CCCCCCCCCCCCCCCC[N+](C)(C)Cc1ccccc1.[Br-] [Benzyldimethylhexadecylammonium bromide]
Tissue Disaggregation (Liver tissue [1]; [8]): 0
Tissue Disaggregation (Liver tissue [1]; [9]): 0
Tissue Disaggregation (Liver tissue [1]; [10]): 0
Tissue Disaggregation (Liver tissue [1]; [11]): 1

Compound: C[C@H](CCC(=O)O)[C@H]1CC[C@H]2[C@@H]3[C@H](O)C[C@@H]4C[C@H](O)CC[C@]4(C)[C@H]3CC[C@]12C [Chenodeoxycholic Acid]
maceration of liver slice (slices of liver; [4]): 0%
maceration of liver slice (slices of liver; [5]): 0%
maceration of liver slice (slices of liver; [6]): 0%
maceration of liver slice (slices of liver; [7]): 0%
maceration of liver slice (slices of liver; [12]): 0%

Solubility of surfactant ([2]; pH 6): S
Solubility of surfactant ([2]; pH 10): S
Compound: polyoxyethylenesorbitan monolaurate [Tween 21]

Solubility of surfactant ([2]; pH 6): S
Solubility of surfactant ([2]; pH 10): S
Compound: polyoxyethylenesorbitan monostearate [Tween 60]

Compound: C[C@H](CCC(=O)NCCS(=O)(=O)O)[C@H]1CC[C@H]2[C@@H]3[C@H](O)C[C@@H]4C[C@H](O)CC[C@]4(C)[C@H]3CC[C@]12C [Taurochenodeoxycholic Acid]
maceration of liver slice (slices of liver; [4]): 0%
maceration of liver slice (slices of liver; [5]): 0%
maceration of liver slice (slices of liver; [6]): 0%
maceration of liver slice (slices of liver; [7]): 0%

Solubility of surfactant ([2]; 4 M GuSCN, Urea, pH 6.0): S
Solubility of surfactant ([2]; 4 M GuSCN, Urea, pH 10.0): S
Solubility of surfactant ([2]; 4 M NaI, Urea, pH 6.0): S(V)
Solubility of surfactant ([2]; 6 M GuHCl, pH 6.0): S
Solubility of surfactant ([2]; 6 M GuHCl, pH 10.0): S
Solubility of surfactant ([2]; 6 M GuSCN, pH 6.0): S
Solubility of surfactant ([2]; 6 M GuSCN, pH 10.0): S
Solubility of surfactant ([2]; 6 M NaI, pH 6.0): S
Compound: CCCCCCCCCCCCOCCOCCOCCO [Brij 30, triethyleneglycol monolauryl ether]

Solubility of surfactant ([2]; pH 6): S
Solubility of surfactant ([2]; pH 10): S
Compound: polyoxyethylenesorbitan monopalmitate [Tween 40]

Compound: CCCCCCCCS(=O)(=O)O [Octyl sulfonate]
maceration of liver slice (slices of liver; [13]): 0%

Compound: C[C@H](CCC(=O)NCC(=O)O)[C@H]1CC[C@H]2[C@@H]3[C@H](O)C[C@@H]4C[C@H](O)CC[C@]4(C)[C@H]3C[C@H](O)[C@]12C [Glycocholic Acid]
maceration of liver slice (slices of liver; [4]): 0%
maceration of liver slice (slices of liver; [5]): 0%
maceration of liver slice (slices of liver; [6]): 0%
maceration of liver slice (slices of liver; [7]): 0%

Compound: CCCCCCCCCCCCCC[N+](C)(C)C.[Br-] [TTAB, tetradecyltrimethylammonium bromide]
Tissue Disaggregation (Liver tissue [1]; [8]): 0
Tissue Disaggregation (Liver tissue [1]; [9]): 0
Tissue Disaggregation (Liver tissue [1]; [10]): 0
Tissue Disaggregation (Liver tissue [1]; [11]): 1

Tissue Disaggregation (Liver tissue [1]; [8]): 0
Tissue Disaggregation (Liver tissue [1]; [9]): 1
Tissue Disaggregation (Liver tissue [1]; [10]): 0
Tissue Disaggregation (Liver tissue [1]; [11]): 2
Compound: Benzalkonium Chloride

Tissue Disaggregation (Liver tissue [1]; [8]): 0
Tissue Disaggregation (Liver tissue [1]; [9]): 1
Tissue Disaggregation (Liver tissue [1]; [10]): 0
Tissue Disaggregation (Liver tissue [1]; [11]): 4
Compound: CCCCCCCC/C=C\CCCCCCCC[N+](C)(C)Cc1ccccc1.[Cl-] [Mackernium KP, olealkonium chloride]

Solubility of surfactant ([2]; pH 6): S
Solubility of surfactant ([2]; pH 10): S
Compound: t-octylphenoxypolyethoxyethanol [Triton X-100]
maceration of liver slice (slices of liver; [4]): 0%
maceration of liver slice (slices of liver; [5]): 100%
maceration of liver slice (slices of liver; [6]): 0%
maceration of liver slice (slices of liver; [7]): 30%
maceration of liver slice (slices of liver; [14]): 0%
maceration of liver slice (slices of liver; [12]): 0%

Compound: CCCCCCCC(=O)O [Octanonic Acid]
maceration of liver slice (slices of liver; [13]): 0%

Solubility of surfactant ([2]; pH 6): S
Solubility of surfactant ([2]; pH 10): S
Compound: polyoxyethylenesorbitan monooleate [Tween 80]
maceration of liver slice (slices of liver; [4]): 0%
maceration of liver slice (slices of liver; [5]): 0%
maceration of liver slice (slices of liver; [6]): 0%
maceration of liver slice (slices of liver; [7]): 0%

Compound: CCCCCCCCCCCCCCCC[N+](C)(C)C.[Cl-] [HDTACl, hexadecyltrimethylammonium chloride]
high molecular weight nucleic acid by gel electrophoresis (Liver tissue [3]): High molecular weight nucleic acid was also observed

Compound: C[N+](C)(C)C.[Cl-] [Tetramethylammonium chloride]
maceration of liver slice (slices of liver; 1 mg/ml Proteinase K, 16-24 hr, 65° C., additive 0.1 M): 0%
maceration of liver slice (slices of liver; 1 mg/ml Proteinase K, 16-24 hr, 65° C., additive 1 M): 0%
maceration of liver slice (slices of liver; 1 mg/ml Proteinase K, 1 hr, 65° C., additive 0.1 M): 0%
maceration of liver slice (slices of liver; 1 mg/ml Proteinase K, 1 hr, 65° C., additive 1 M): 0%
maceration of liver slice (slices of liver; No Proteinase K, 16-24 hr, 65° C., additive 0.1 M): 0%
maceration of liver slice (slices of liver; No Proteinase K, 16-24 hr, 65° C., additive 1 M): 0%

Compound: CCCCCCCCCCCC[N+](C)(C)Cc1ccccc1.[Br-] [Benzyldimethyldodecylammonium bromide]
Tissue Disaggregation (Liver tissue [1]; [8]): 0
Tissue Disaggregation (Liver tissue [1]; [9]): 0
Tissue Disaggregation (Liver tissue [1]; [10]): 0
Tissue Disaggregation (Liver tissue [1]; [11]): 1

Compound: CCCCC(CC)COS(=O)(=O)[O-].[Na+] (stereo not shown) [NiaProof Type 8]
maceration of liver slice (slices of liver; [4]): 0%
maceration of liver slice (slices of liver; [5]): 0%
maceration of liver slice (slices of liver; [6]): 0%
maceration of liver slice (slices of liver; [7]): 0%
maceration of liver slice (slices of liver; [14]): 0%
